Assays:
Format in all cases: functional, cell-based
[1] = test system: HeLa; assay: Growth inhibition of human HeLa cells incubated for 48 hrs by MTT reagent based ELISA reader analysis
[2] = test system: A549; assay: Growth inhibition of human A549 cells incubated for 48 hrs by MTT reagent based ELISA reader analysis; details: A549, 48 h
[3] = test system: MCF7; assay: Growth inhibition of human MCF7 cells incubated for 48 hrs by MTT reagent based ELISA reader analysis; details: MCF7, 48 h
[4] = test system: HepG2; assay: Growth inhibition of human HepG2 cells incubated for 48 hrs by MTT reagent based ELISA reader analysis; details: HepG2, 48 h
[5] = test system: HCT-116; assay: Growth inhibition of human HCT-116 cells incubated for 48 hrs by MTT reagent based ELISA reader analysis; details: HCT-116, 48 h

| SMILES | IC50 [1] [nM] | IC50 [2] [nM] | IC50 [3] [nM] | IC50 [4] [nM] | IC50 [5] [nM] |
| --- | --- | --- | --- | --- | --- |
| CCSc1ccc(-c2c3c(cc4nc5c(cc24)Cn2c-5cc4c(c2=O)COC(=O)[C@]4(O)CC)OCO3)cc1 | > 1000 | 211 | > 1000 | 401 | 620 |
| CC[C@@]1(O)C(=O)OCc2c1cc1n(c2=O)Cc2c-1nc1cc3c(cc1c2-c1cc(C)cc(C)c1)OCO3 | 33.6 | 36 | 86.8 | 45.4 | 64 |
| CC[C@@]1(O)C(=O)OCc2c1cc1n(c2=O)Cc2cc3c(-c4cc(C)cc(C)c4)c4c(cc3nc2-1)OCO4 | 115 | 107 | 160 | 292 | 709 |
| CCSc1ccc(-c2c3c(nc4cc5c(cc24)OCO5)-c2cc4c(c(=O)n2C3)COC(=O)[C@]4(O)CC)cc1 | 95.8 | 29.1 | 72.5 | 300 | 91.3 |
| CC[C@@]1(O)C(=O)OCc2c1cc1n(c2=O)Cc2cc3c(-c4ccc(C)c(C)c4)c4c(cc3nc2-1)OCO4 | > 1000 | 259 | > 1000 | > 1000 | 774 |
| CC[C@@]1(O)C(=O)OCc2c1cc1n(c2=O)Cc2c-1nc1cc3c(cc1c2-c1cccc(OC)c1)OCO3 | 88.3 | 21.4 | 95.8 | 14.8 | 48.5 |
| CCCOc1ccc(-c2c3c(nc4cc5c(cc24)OCO5)-c2cc4c(c(=O)n2C3)COC(=O)[C@]4(O)CC)cc1 | > 1000 | 225 | 53 | 993 | 562 |
| CC[C@@]1(O)C(=O)OCc2c1cc1n(c2=O)Cc2cc3c(-c4ccc(OC)cc4)c4c(cc3nc2-1)OCO4 | > 1000 | 163 | 161 | 527 | 162 |
| CC[C@@]1(O)C(=O)OCc2c1cc1n(c2=O)Cc2cc3c(-c4cc(OC)cc(OC)c4)c4c(cc3nc2-1)OCO4 | 32.8 | 434 | 29.7 | 28.1 | 22.3 |
| CC[C@@]1(O)C(=O)OCc2c1cc1n(c2=O)Cc2cc3c(-c4cccc(SC)c4)c4c(cc3nc2-1)OCO4 | 32.3 | 133 | 98.5 | 190 | 134 |
| CCCCOc1ccc(-c2c3c(nc4cc5c(cc24)OCO5)-c2cc4c(c(=O)n2C3)COC(=O)[C@]4(O)CC)cc1 | > 1000 | > 1000 | > 1000 | > 1000 | 235 |
| CC[C@@]1(O)C(=O)OCc2c1cc1n(c2=O)Cc2cc3c(-c4ccc(SC)cc4)c4c(cc3nc2-1)OCO4 | 161 | 220 | 158 | 303 | 582 |
| CC[C@@]1(O)C(=O)OCc2c1cc1n(c2=O)Cc2c-1nc1cc3c(cc1c2-c1cccc(C)c1)OCO3 | 144 | 115 | 38.6 | 134 | 21.8 |
| CC[C@@]1(O)C(=O)OCc2c1cc1n(c2=O)Cc2c-1nc1cc3c(cc1c2-c1ccc2c(c1)OCO2)OCO3 | 475 | 84.6 | 35.5 | 61.1 | 36.7 |
| CCOc1ccc(-c2c3c(cc4nc5c(cc24)Cn2c-5cc4c(c2=O)COC(=O)[C@]4(O)CC)OCO3)cc1 | > 1000 | 296 | > 1000 | > 1000 | 176 |
| CCOc1cccc(-c2c3c(nc4cc5c(cc24)OCO5)-c2cc4c(c(=O)n2C3)COC(=O)[C@]4(O)CC)c1 | 52.2 | 29.4 | 47.8 | 280 | 55.9 |
| CC[C@@]1(O)C(=O)OCc2c1cc1n(c2=O)Cc2c-1nc1cc3c(cc1c2-c1ccc(C(C)(C)C)cc1)OCO3 | > 1000 | 64 | 160 | 140 | 83.2 |
| CCOc1ccc(-c2c3c(nc4cc5c(cc24)OCO5)-c2cc4c(c(=O)n2C3)COC(=O)[C@]4(O)CC)cc1 | 63.2 | 61.2 | 64 | > 1000 | 226 |
| CC[C@@]1(O)C(=O)OCc2c1cc1n(c2=O)Cc2cc3c(-c4ccc5c(c4)OCO5)c4c(cc3nc2-1)OCO4 | 32.5 | 111 | 32.6 | 350 | 59.2 |
| CCOc1cccc(-c2c3c(cc4nc5c(cc24)Cn2c-5cc4c(c2=O)COC(=O)[C@]4(O)CC)OCO3)c1 | > 1000 | 111 | 156 | 199 | 256 |
| CCCc1ccc(-c2c3c(cc4nc5c(cc24)Cn2c-5cc4c(c2=O)COC(=O)[C@]4(O)CC)OCO3)cc1 | > 1000 | 423 | > 1000 | > 1000 | 951 |
